The values that follow are results of earlier work, collected in US10729778B2, “Carrier-linked treprostinil prodrugs” (Ascendis Pharma A/S, priority 2011, dated 2020).

For this series the following is noted: background statement.

For the molecule `CCCCC[C@H](O)CC[C@@H]1[C@H]2Cc3cccc(OCC(=O)O)c3C[C@H]2C[C@H]1O` [Treprostinil], the half-life (commonly the time needed for the level to fall by half in the phase considered) was 4 h.
